What was measured:
[1] = molecular target: T1, human MDM2 protein (amino acids 2-188) (Homo sapiens, UniProt Q00987); test: p53-MDM2 TR-FRET assay (p53-MDM2 Assay 1); assay type: binding; details: 1.25 nM MDM2-biotinylated, 10 nM Cy5-p53 peptide; read-out: IC50 (μM) of p53-Hdm2 inhibition (TR-FRET) Assay 1
T1 construct: human MDM2 protein (amino acids 2-188); made in house
Experimental: (§1) Time Resolved Fluorescence Energy Transfer (TR-FRET) Assay
(§2) The inhibition of p53-MDM2 and p53-MDM4 interactions is measured by time resolved fluorescence energy transfer (TR-FRET). Fluorescence energy transfer (or Foerster resonance energy transfer) describes an energy transfer between donor and acceptor fluorescent molecules. For this assay, human MDM2 protein (amino acids 2-188) and human MDM4 protein (amino acids 2-185), tagged with a C-terminal biotin moiety, are used in combination with a Europium labeled streptavidin (Perkin Elmer, Inc., Waltham, Mass., USA) serving as the donor fluorophore. The p53 derived, Cy5 labeled peptide Cy5-TFSDLWKLL (p53 aa18-26) is the energy acceptor. Upon excitation of the donor molecule at 340 nm, binding interaction between MDM2 or MDM4 and the p53 peptide induces energy transfer and enhanced response at the acceptor emission wavelength at 665 nm. Disruption of the formation of the p53-MDM2 or p53-MDM4 complex due to an inhibitor molecule binding to the p53 binding site of MDM2 or MDM4 results in increased donor emission at 620 nm. The ratiometric FRET assay readout is calculated from the raw data of the two distinct fluorescence signals measured in time resolved mode (fluorescence 665 nm/fluorescence 620 nm×1000).
(§3) After addition of 1.25 nM MDM2-biotinylated or 2.5 nM MDM4-biotinylated (internal preparations), and 0.625 nM Europium labeled streptavidin (Perkin Elmer), the solution is pre-incubated for 15 minutes at room temperature, then 10 nM Cy5-p53 peptide (internal preparation) is added before an incubation at room temperature for 15 minutes prior to reading the plate. For measurement of samples, a Victor II microplate reader (Perkin Elmer) is used with the following settings: Excitation 340 nm, Emission Donor 620 nm and Emission Acceptor 665 nm. IC50 values are calculated by curve fitting using XLfit. If not specified, reagents are purchased from Sigma-Aldrich Chemie GmBH, Buchs, Switzerland.
(§4) This assay was used to evaluate compounds displaying inhibition of p53-MDM2 interaction and p53-MDM4 interaction at IC50s of 0.005 to 50 μM (p53-MDM2 Assay 1 and p53-MDM4 Assay 1, respectively). For selected compounds displaying IC50s between […] on MDM2, a slightly modified assay is used with the following adaptations: 0.1 nM MDM2, 0.1 nM Europium labeled streptavidin and Tecan genios Pro is used as a microplate reader for the fluorescence measurements (p53-MDM2 Assay 2).

[2] = molecular target: T2, human MDM4 protein (amino acids 2-185) (Homo sapiens, UniProt O15151); test: p53-MDM4 TR-FRET assay (p53-MDM4 Assay 1); assay type: binding; details: 2.5 nM MDM4-biotinylated, 10 nM Cy5-p53 peptide; read-out: IC50 (μM) of p53-Hdm4 inhibition (TR-FRET) Assay 1
T2 construct: human MDM4 protein (amino acids 2-185); made in house
T2 sequence (O15151 2-185): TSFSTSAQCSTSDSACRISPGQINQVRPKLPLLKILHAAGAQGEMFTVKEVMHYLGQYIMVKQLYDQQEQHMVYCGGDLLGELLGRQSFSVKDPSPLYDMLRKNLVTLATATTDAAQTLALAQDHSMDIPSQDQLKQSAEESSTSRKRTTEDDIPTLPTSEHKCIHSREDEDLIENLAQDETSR
Experimental: as §1, §2, §3, §4

T1 sequence (Q00987 2-188): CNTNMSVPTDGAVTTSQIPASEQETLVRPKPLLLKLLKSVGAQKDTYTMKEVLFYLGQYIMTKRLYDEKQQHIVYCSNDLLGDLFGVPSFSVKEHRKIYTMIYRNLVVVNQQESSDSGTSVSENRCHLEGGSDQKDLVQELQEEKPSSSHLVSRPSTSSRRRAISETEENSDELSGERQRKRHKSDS

| SMILES | IC50 [1] [µM] | IC50 [2] [µM] |
| --- | --- | --- |
| COc1cc2c(cc1OC(C)C)[C@H](c1ccc(Cl)cc1)N(c1ccc(C(C)(O)c3ccc(NC(C)=O)cc3)nc1)C(=O)C2 (stereo partly drawn) [Example 24, N-[4-(1-{5-[(S)-1-(4-Chloro-phenyl)-7-isopropoxy-6-methoxy-3-oxo-3,4-dihydro-1H-isoquinolin-2-yl]-pyridin-2-yl}-1-hydroxy-ethyl)-phenyl]-acetamide] | 0.0544 | 61.3 |
| COc1cc2c(cc1OC(C)C)[C@H](c1ccc(Cl)cc1)N(c1ccc(C(C)(O)c3ccc(NC(C)=O)cc3)cn1)C(=O)C2 (stereo partly drawn) [Example 25, N-[4-(1-{6-[(S)-1-(4-Chloro-phenyl)-7-isopropoxy-6-methoxy-3-oxo-3,4-dihydro-1H-isoquinolin-2-yl]-pyridin-3-yl}-1-hydroxy-ethyl)-phenyl]-acetamide] | 0.0112 | 19.5 |
| COc1cc2c(cc1OC(C)C)[C@H](c1ccc(Cl)cc1)N(c1ccc(C(C)(O)CNC(C)=O)cc1)C(=O)C2 (stereo partly drawn) [Example 29, N-(2-{4-[(S)-1-(4-Chloro-phenyl)-7-isopropoxy-6-methoxy-3-oxo-3,4-dihydro-1H-isoquinolin-2-yl]-phenyl}-2-hydroxy-propyl)-acetamide] | 0.143 | 39.7 |
| COc1cc2c(cc1OC(C)C)[C@H](c1ccc(Cl)cc1)N(c1ccc(C(C)(O)C3CCN(C(C)=O)CC3)cc1)C(=O)C2 (stereo partly drawn) [Example 31, (S)-2-{4-[1-(1-Acetyl-piperidin-4-yl)-1-hydroxy-ethyl]-phenyl}-1-(4-chloro-phenyl)-7-isopropoxy-6-methoxy-1,4-dihydro-2H-isoquinolin-3-one] | 0.0023 | 2.31 |
| COc1cc2c(cc1OC(C)C)[C@H](c1ccc(Cl)cc1)N(c1ccc(C(C)(O)C3CCOCC3)cc1OC)C(=O)C2 (stereo partly drawn) [Example 36, (S)-1-(4-Chloro-phenyl)-2-{4-[1-hydroxy-1-(tetrahydro-pyran-4-yl)-ethyl]-2-methoxy-phenyl}-7-isopropoxy-6-methoxy-1,4-dihydro-2H-isoquinolin-3-one] | 0.0051 | 6.03 |
| COc1cc2c(cc1OC(C)C)[C@H](c1ccc(Cl)cc1)N(c1ccc(C(C)(O)C3CCOCC3)cn1)C(=O)C2 (stereo partly drawn) [Example 37, (S)-1-(4-Chloro-phenyl)-2-{5-[1-hydroxy-1-(tetrahydro-pyran-4-yl)-ethyl]-pyridin-2-yl}-7-isopropoxy-6-methoxy-1,4-dihydro-2H-isoquinolin-3-one] | 0.0117 | 13.8 |
| COc1cc2c(cc1OC(C)C)[C@H](c1ccc(Cl)cc1)N(c1ccc(C(O)C3CCOCC3)cc1)C(=O)C2 (stereo partly drawn) [Example 40, (S)-1-(4-Chloro-phenyl)-2-{4-[hydroxy-(tetrahydro-pyran-4-yl)-methyl]-phenyl}-7-isopropoxy-6-methoxy-1,4-dihydro-2H-isoquinolin-3-one] | 0.0328 | 31.6 |
| COc1cc2c(cc1OC(C)C)[C@H](c1ccc(Cl)cc1)N(c1ccc(C(C)(O)C3CCN(C(=O)OC(C)(C)C)CC3)cc1)C(=O)C2 (stereo partly drawn) [Example 42, 4-(1-{4-[(S)-1-(4-Chloro-phenyl)-7-isopropoxy-6-methoxy-3-oxo-3,4-dihydro-1H-isoquinolin-2-yl]-phenyl}-1-hydroxy-ethyl)-piperidine-1-carboxylic acid tert-butyl ester] | 0.0091 | 14.9 |
| COc1cc2c(cc1OC(C)C)[C@H](c1ccc(Cl)cc1)N(c1ccc(C(C)(O)C3CCNCC3)cc1)C(=O)C2 (stereo partly drawn) [Example 43, (S)-1-(4-Chloro-phenyl)-2-[4-(1-hydroxy-1-piperidin-4-yl-ethyl)-phenyl]-7-isopropoxy-6-methoxy-1,4-dihydro-2H-isoquinolin-3-one] | 0.0041 | 4.99 |
| COc1cc2c(cc1OC(C)C)[C@H](c1ccc(Cl)cc1)N(c1ccc(C(C)(O)C3CCC(F)(F)CC3)cc1)C(=O)C2 (stereo partly drawn) [Example 45, (S)-1-(4-Chloro-phenyl)-2-{4-[1-(4,4-difluoro-cyclohexyl)-1-hydroxy-ethyl]-phenyl}-7-isopropoxy-6-methoxy-1,4-dihydro-2H-isoquinolin-3-one] | 0.0089 | 17.4 |

Second part, the compound after the results:

| IC50 [1] [µM] | IC50 [2] [µM] | SMILES |
| --- | --- | --- |
| 0.0068 | 7.73 | COc1cc2c(cc1OC(C)C)[C@H](c1ccc(Cl)cc1)N(c1ccc(C(C)(O)c3ccncc3)cc1)C(=O)C2 (stereo partly drawn) [Example 17, (S)-1-(4-Chloro-phenyl)-2-[4-(1-hydroxy-1-pyridin-4-yl-ethyl)-phenyl]-7-isopropoxy-6-methoxy-1,4-dihydro-2H-isoquinolin-3-one] |
| 0.0368 | 37.2 | COc1cc2c(cc1OC(C)C)[C@H](c1ccc(Cl)cc1)N(c1ccc(C(C)(O)c3ccccn3)cc1)C(=O)C2 (stereo partly drawn) [Example 18, (S)-1-(4-Chloro-phenyl)-2-[4-(1-hydroxy-1-pyridin-2-yl-ethyl)-phenyl]-7-isopropoxy-6-methoxy-1,4-dihydro-2H-isoquinolin-3-one] |
| 0.0446 | 87.2 | COc1cc2c(cc1OC(C)C)[C@H](c1ccc(Cl)cc1)N(c1ccc(C(C)(O)c3ccc(F)c(F)c3)cc1)C(=O)C2 (stereo partly drawn) [Example 19, (S)-1-(4-Chloro-phenyl)-2-{4-[1-(3,4-difluoro-phenyl)-1-hydroxy-ethyl]-phenyl}-7-isopropoxy-6-methoxy-1,4-dihydro-2H-isoquinolin-3-one] |
| 0.0225 | 21.7 | COc1cc(OC)cc(C(C)(O)c2ccc(N3C(=O)Cc4cc(OC)c(OC(C)C)cc4[C@@H]3c3ccc(Cl)cc3)cc2)c1 (stereo partly drawn) [Example 22, (S)-1-(4-Chloro-phenyl)-2-{4-[1-(3,5-dimethoxy-phenyl)-1-hydroxy-ethyl]-phenyl}-7-isopropoxy-6-methoxy-1,4-dihydro-2H-isoquinolin-3-one] |
| 0.0159 | 24.7 | COc1ccc(C(C)(O)c2ccc(N3C(=O)Cc4cc(OC)c(OC(C)C)cc4[C@@H]3c3ccc(Cl)cc3)cc2)cn1 (stereo partly drawn) [Example 23, (S)-1-(4-Chloro-phenyl)-2-{4-[1-hydroxy-1-(6-methoxy-pyridin-3-yl)-ethyl]-phenyl}-7-isopropoxy-6-methoxy-1,4-dihydro-2H-isoquinolin-3-one] |
| 0.0043 | 8.25 | COc1cc2c(cc1OC(C)C)[C@H](c1ccc(Cl)cc1)N(c1ccc([C@@](C)(O)c3ccc(NC(C)=O)cc3)cc1)C(=O)C2 [Example 26, N-[4-((S)-1-{4-[(S)-1-(4-Chloro-phenyl)-7-isopropoxy-6-methoxy-3-oxo-3,4-dihydro-1H-isoquinolin-2-yl]-phenyl}-1-hydroxy-ethyl)-phenyl]-acetamide] |
| 0.0458 | 36.3 | COc1cc2c(cc1OC(C)C)[C@H](c1ccc(Cl)cc1)N(c1ccc([C@](C)(O)c3ccc(NC(C)=O)cc3)cc1)C(=O)C2 [Example 27, N-[4-((R)-1-{4-[(S)-1-(4-Chloro-phenyl)-7-isopropoxy-6-methoxy-3-oxo-3,4-dihydro-1H-isoquinolin-2-yl]-phenyl}-1-hydroxy-ethyl)-phenyl]-acetamide] |
| 0.0066 | 9.7 | COc1cc2c(cc1OC(C)C)[C@H](c1ccc(Cl)cc1)N(c1ccc(C(C)(O)c3ccc(NC(C)=O)cc3)c(F)c1)C(=O)C2 (stereo partly drawn) [Example 28, N-[4-(1-{4-[(S)-1-(4-Chloro-phenyl)-7-isopropoxy-6-methoxy-3-oxo-3,4-dihydro-1H-isoquinolin-2-yl]-2-fluoro-phenyl}-1-hydroxy-ethyl)-phenyl]-acetamide] |

Source: US8859535B2, “Hydroxy substituted isoquinolinone derivatives” (Novartis AG, priority 2011, dated 2014)
